Read-outs that look alike come from different tables or passages of the source.

Assay [1] concerns A-549. Kind of assay: Inhibition of cell growth by counting cells, A-549. The format is cell-based, human. The note with it: Homo sapiens, A549, 72 h; three days of incubation; read-out: IC50 (molar) A-549. The gist of the method:
(§1)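 Counts are net cells per well, averaged from duplicate wells, obtained by Coulter counting after trypsinization following 72 h of exposure at 37 °C. Seeding was 1×10^4 cells per well in EMEM/5% FCS with varied sample concentrations, alongside untreated growth controls. IC50 values derive from dose-response curves of % growth.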

For assay [2], the system named is MEL-28. The experiment in a line: Inhibition of cell growth by counting cells, MEL-28. The format is cell-based, human. The note with it: Homo sapiens, SK-MEL-28, 72 h; three days of incubation; read-out: IC50 (molar) MEL-28. The gist of the method:
as §1

In assay [3] the test system is DU-145. The experiment in a line: Inhibition of cell growth by counting cells, DU-145. The assay is classed as cell-based, human. Conditions: Homo sapiens, DU-145, 72 h, read-out: IC50 (molar) DU-145. The gist of the method: as §1
Assay [4] has as its system HT-29. Kind of assay: Inhibition of cell growth by counting cells, HT-29. Conditions: Homo sapiens, HT-29, 72 h; three days of incubation; read-out: IC50 (molar) HT-29. The format is cell-based, human. The gist of the method:
as §1

For assay [5], the system named is P-388. Kind of assay: Inhibition of cell growth by counting cells, P-388. The note with it: Mus musculus, P388, 72 h; three days of incubation; read-out: IC50 (molar) P-388. The assay is classed as cell-based, mouse. The gist of the method: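 IC50 is the sample concentration halving growth, taken from dose-response curves of cell counts (Coulter counter, duplicate wells) relative to drug-free cultures. P-388 (DBA/2 mouse lymphoid neoplasm) cells plated at 1×10^4 per well in EMEM with 5% FCS plus test sample.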

For the compound `CCCC(=O)Oc1cc2c(cc1OC)[C@@]1(CS[C@@H]3c4c(OC(C)=O)c(C)c5c(c4[C@H](COC1=O)N1C3[C@H]3c4c(cc(C)c(OC)c4O)C[C@@H]([C@@H]1C#N)N3C(=O)OC(C)(C)C)OCO5)NCC2` (some centres unmarked) [Compound 192], the IC50 in assay [1], in assay [2], in assay [3], in assay [4] and in assay [5] was 5.39 nM throughout.
As for `COc1cc2c(cc1OC(=O)/C=C/c1ccccc1)CCN[C@]21CS[C@@H]2c3c(OC(C)=O)c(C)c4c(c3[C@H](COC1=O)N1C2[C@H]2c3c(cc(C)c(OC)c3O)C[C@@H]([C@@H]1C#N)N2C(=O)OC(C)(C)C)OCO4` (some centres unmarked) [Compound 194], the IC50 in assay [1], in assay [2], in assay [3] (three days of incubation), in assay [4] and in assay [5] was 50.7 nM in each case.
Turning to `CCCCCCCC(=O)Oc1cc2c(cc1OC)[C@@]1(CS[C@@H]3c4c(OC(C)=O)c(C)c5c(c4[C@H](COC1=O)N1C3[C@H]3c4c(cc(C)c(OC)c4O)C[C@@H]([C@@H]1C#N)N3C(=O)OC(C)(C)C)OCO5)NCC2` (some centres unmarked) [Compound 195], the IC50 in assay [1], in assay [2], in assay [3] (three days of incubation), in assay [4] and in assay [5] was 10.2 nM each time.
`CCCCCCCC(=O)Oc1cc2c(cc1OC)[C@@]1(CS[C@@H]3c4c(OC(C)=O)c(C)c5c(c4[C@H](COC1=O)N1C3[C@H]3c4c(cc(C)c(OC)c4OC(=O)CCCCCCC)C[C@@H]([C@@H]1C#N)N3C(=O)OC(C)(C)C)OCO5)NCC2` (some centres unmarked) [Compound 196]: the IC50 in assay [1], in assay [2], in assay [3] (three days of incubation), in assay [4] and in assay [5] was 9020 nM throughout.
`CCCCCCCCCCCCCCCC(=O)Oc1cc2c(cc1OC)[C@@]1(CS[C@@H]3c4c(OC(C)=O)c(C)c5c(c4[C@H](COC1=O)N1C3[C@H]3c4c(cc(C)c(OC)c4O)C[C@@H]([C@@H]1C#N)N3C(=O)OC(C)(C)C)OCO5)NCC2` (some centres unmarked) [Compound 197]: the IC50 in assay [1], in assay [2], in assay [3] (three days of incubation), in assay [4] and in assay [5] was 9130 nM throughout.
On to `CCCCCCCCCCCCCCCC(=O)Oc1cc2c(cc1OC)[C@@]1(CS[C@@H]3c4c(OC(C)=O)c(C)c5c(c4[C@H](COC1=O)N1C3[C@H]3c4c(cc(C)c(OC)c4OC(=O)CCCCCCCCCCCCCCC)C[C@@H]([C@@H]1C#N)N3C(=O)OC(C)(C)C)OCO5)NCC2` (some centres unmarked) [Compound 198], for which the IC50 in assay [1], in assay [2], in assay [3] (three days of incubation), in assay [4] and in assay [5] was 7500 nM each time.
`COc1cc2c(cc1OC(C)=O)CCN[C@]21CS[C@@H]2c3c(OC(C)=O)c(C)c4c(c3[C@H](COC1=O)N1C2[C@@H]2N[C@@H](Cc3cc(C)c(OC)c(O)c32)[C@@H]1C#N)OCO4` (some centres unmarked) [Compound 202]: the IC50 (as a rule, the concentration that inhibits the measured activity by half) is 0.125 nM in assay [1]; 0.0625 nM in assay [2]; 0.0625 nM in assay [3] (three days of incubation); 0.125 nM in assay [4]; 0.125 nM in assay [5].
On to `CCCC(=O)Oc1cc2c(cc1OC)[C@@]1(CS[C@@H]3c4c(OC(C)=O)c(C)c5c(c4[C@H](COC1=O)N1C3[C@@H]3N[C@@H](Cc4cc(C)c(OC)c(O)c43)[C@@H]1C#N)OCO5)NCC2` (some centres unmarked) [Compound 203], for which the concentration for half-maximal inhibition (IC50) in assay [1], in assay [2], in assay [3] (three days of incubation), in assay [4] and in assay [5] was 0.121 nM throughout.
With `COc1cc2c(cc1OC(=O)/C=C/c1ccccc1)CCN[C@]21CS[C@@H]2c3c(OC(C)=O)c(C)c4c(c3[C@H](COC1=O)N1C2[C@@H]2N[C@@H](Cc3cc(C)c(OC)c(O)c32)[C@@H]1C#N)OCO4` (some centres unmarked) [Compound 204], the IC50 in assay [1], in assay [2], in assay [3] (three days of incubation), in assay [4] and in assay [5] was 0.113 nM throughout.
Take `CCCCCCCC(=O)Oc1cc2c(cc1OC)[C@@]1(CS[C@@H]3c4c(OC(C)=O)c(C)c5c(c4[C@H](COC1=O)N1C3[C@@H]3N[C@@H](Cc4cc(C)c(OC)c(O)c43)[C@@H]1C#N)OCO5)NCC2` (some centres unmarked) [Compound 205]: the IC50 in assay [1], in assay [2], in assay [3] (three days of incubation), in assay [4] and in assay [5] was 0.113 nM in each case.
For `CCCCCCCC(=O)Oc1cc2c(cc1OC)[C@@]1(CS[C@@H]3c4c(OC(C)=O)c(C)c5c(c4[C@H](COC1=O)N1C3[C@@H]3N[C@@H](Cc4cc(C)c(OC)c(OC(=O)CCCCCCC)c43)[C@@H]1C#N)OCO5)NCC2` (some centres unmarked) [Compound 206], the IC50 in assay [1], in assay [2], in assay [3] (three days of incubation), in assay [4] and in assay [5] was 49.6 nM throughout.
Take `CCCCCCCCCCCCCCCC(=O)Oc1cc2c(cc1OC)[C@@]1(CS[C@@H]3c4c(OC(C)=O)c(C)c5c(c4[C@H](COC1=O)N1C3[C@@H]3N[C@@H](Cc4cc(C)c(OC)c(O)c43)[C@@H]1C#N)OCO5)NCC2` (some centres unmarked) [Compound 207]: the IC50 in assay [1], in assay [2], in assay [3] (three days of incubation), in assay [4] and in assay [5] was 5.03 nM throughout.
In the case of `CCCCCCCCCCCCCCCC(=O)Oc1cc2c(cc1OC)[C@@]1(CS[C@@H]3c4c(OC(C)=O)c(C)c5c(c4[C@H](COC1=O)N1C3[C@@H]3N[C@@H](Cc4cc(C)c(OC)c(OC(=O)CCCCCCCCCCCCCCC)c43)[C@@H]1C#N)OCO5)NCC2` (some centres unmarked) [Compound 208], the IC50 in assay [1], in assay [2], in assay [3] (three days of incubation), in assay [4] and in assay [5] was 8110 nM each time.

Values taken from patent publication US7759345B2, “Antitumoral derivatives of ET-743” (priority 2001, dated 2010).
